Laboratory results published in the NIST ThermoML archive (doi:10.1021/je900967j).

Test: xn = mol fraction of the nth substance listed
Conditions: 298.15 K; 101 kPa; Liquid; Dispersion; x1 = 0

OCCCCCc1ccccc1 [1-pentanol, 5-phenyl-] + O
binary diffusion coefficient: 5.32e-10 m2/s

OCCCCc1ccccc1 [4-phenyl-1-butanol] + O
binary diffusion coefficient: 6.64e-10 m2/s

OCCc1ccccc1 [2-phenylethanol] + O
binary diffusion coefficient: 7.92e-10 m2/s

OCCCc1ccccc1 [3-phenyl-1-propanol] + O
binary diffusion coefficient: 7.22e-10 m2/s

OCc1ccccc1 [benzenemethanol] + O
binary diffusion coefficient: 8.3e-10 m2/s
